Data: publication PMC7525492, “Microtiter plate-based antibody-competition assay to determine binding affinities and plasma/blood stability of CXCR4 ligands” (Scientific Reports, 2020)
Read-outs that look alike come from different tables or passages of the source. Bridge positions count the residues as written; N and C are the ends. Square brackets hold non-standard residues; d marks the D form. Ends that are not written are not given here. Peptide text beside a SMILES is read from it. * marks the point of attachment. 2Nal = N[C@@H](Cc1ccc2ccccc2c1)C(=O)O; Benzoyl(4-F) = O=C(c1ccc(F)cc1)*; Cit = NC(=O)NCCC[C@H](N)C(=O)O

Columns and labels:
CXCR4 [1] = biological target: T1, CXCR4 (Homo sapiens, UniProt P61073); assay: 1D9 control antibody competition on SupT1 cells; format: binding; conditions: PE-labelled 1D9, SupT1 cells, single experiment
CXCR4-tropic HIV-1 [2] = conditions: read-out: IC50 HIV-1; TZM-bl cells, infection rate after 3 days; mean ± SEM of 3 assays
CXCR4 [3] = biological target: T1, CXCR4; assay: 12G5 antibody competition assay on SupT1 cells; format: binding
Method: Compounds were serially diluted in ice cold PBS and 12G5-APC antibody was diluted in cold PBS containing 1% FCS. […] Plates were incubated at 4 °C in the dark for 2 h. Afterwards cells were washed twice by centrifugation with PBS containing 1% FCS and fixed with 2% paraformaldehyde (PFA). During all pipetting steps, plates were kept cool by using a cooling pad. Antibody binding was analyzed by flow cytometry (FACS CytoFLEX; Beckman Coulter) by determination of the mean fluorescence intensity (MFI) of at least 5.000 cells (50.000 cells per well) or 1.000 cells (5.000 cells per well).
Ki calculation3 Ki=IC50/1+L/Kd
For Ki = inhibitory constant; IC50 = half maximal inhibition for 12G5 binding; [L] = 12G5 concentration; Kd = dissociation constant of 12G5.
(§1) Statistical analysis was performed in GraphPad Prism (version 8.3.0). IC50 and IC90 curves and the areas under the curves (AUC) were determined by nonlinear regression.

[4] = Functional stability in human plasma read out by 12G5 competition; format: in vitro ADME; conditions: for half-life at 20 µM: human, plasma
Method: The t = 0 sample was immediately taken and stored at − 80 °C. Plasma/compound or blood/compound mixture was then transferred to 37 °C and shook at 350 rpm. At given time points samples were taken and stored at − 80 °C. For measuring the functional activity of the plasma/peptide samples, the mixtures were thawed and serially diluted in ice cold PBS (starting with 100% sample). 12G5-APC antibody competition was then performed as described before. Note, that during the competition process the samples are 1:1 diluted with the antibody and the highest plasma concentration on cells was 50%. For blood/peptide functional stability, samples were thawed and centrifuged at 14,000 rpm for 3 min at 4 °C to remove cells and debris. The supernatant was then serially diluted in PBS (starting with 100% sample) and 12G5-antibody competition assay was performed. […] Afterwards cells were washed again and analyzed for bound antibody.
as §1

in vitro = in vitro ADME, human
Method: Compounds were 150-fold diluted in human plasma or whole human blood to reach final concentrations of 20 µM. The t = 0 sample was immediately taken and stored at − 80 °C. Plasma/compound or blood/compound mixture was then transferred to 37 °C and shook at 350 rpm. At given time points samples were taken and stored at − 80 °C. For measuring the functional activity of the plasma/peptide samples, the mixtures were thawed and serially diluted in ice cold PBS (starting with 100% sample). 12G5-APC antibody competition was then performed as described before. Note, that during the competition process the samples are 1:1 diluted with the antibody and the highest plasma concentration on cells was 50%. For blood/peptide functional stability, samples were thawed and centrifuged at 14,000 rpm for 3 min at 4 °C to remove cells and debris. The supernatant was then serially diluted in PBS (starting with 100% sample) and 12G5-antibody competition assay was performed. After the 2 h incubation, the cells were washed by centrifugation (1.300 rpm, 4 °C) and 50 µL of 1-step-Fix/Lyse solution (Thermo Fisher #00-5333-54) was added for 15 min at room temperature. Afterwards cells were washed again and analyzed for bound antibody.
Statistical analysis was performed in GraphPad Prism (version 8.3.0). IC50 and IC90 curves and the areas under the curves (AUC) were determined by nonlinear regression. For half-life calculations, the IC50 values for each time point as well as the AUCs were analyzed and normalized relative to t = 0. Activities were then determined ((IC50 (t = 0) / IC50 (t)) × 100) for each time point and half-lives determined by a One-Phase-Decay model.

[5] = 20 µM, up to 60 min, 37 °C, mouse plasma from a single animal
CXCR4 [6] = biological target: T1, CXCR4; assay: 12G5 antibody competition assay on SupT1 cells; format: binding; conditions: 1, 2 and 4 h incubation, Fig. S2
CXCL12 migration = conditions: cited from earlier work
CXCR4-tropic HIV-1 [7] = system: CXCR4-tropic HIV-1; set-up: method as in PMID 25921529, PMID 30768790; conditions: cited from earlier work
[8] = read-out: IC50 Migration, 100 ng/mL CXCL12, 4 h, mean ± SEM of 3 assays

T1 sequence (P61073 whole entry): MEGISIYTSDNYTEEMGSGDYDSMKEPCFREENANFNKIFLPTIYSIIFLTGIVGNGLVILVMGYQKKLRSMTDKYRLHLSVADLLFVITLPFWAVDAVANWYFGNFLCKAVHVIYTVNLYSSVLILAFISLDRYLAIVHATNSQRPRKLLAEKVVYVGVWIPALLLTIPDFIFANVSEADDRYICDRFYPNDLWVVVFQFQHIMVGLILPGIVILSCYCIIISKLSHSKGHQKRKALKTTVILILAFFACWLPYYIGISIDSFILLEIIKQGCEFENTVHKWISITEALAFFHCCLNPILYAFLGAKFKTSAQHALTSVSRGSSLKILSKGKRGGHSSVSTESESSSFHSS

For `N=C(N)NCCC[C@H](NC(=O)[C@@H]1CSSC[C@H](NC(=O)[C@H](Cc2ccc3ccccc3c2)NC(=O)[C@H](CCCNC(=N)N)NC(=O)[C@H](CCCNC(=N)N)NC(=O)c2ccc(F)cc2)C(=O)N[C@@H](Cc2ccc(O)cc2)C(=O)N[C@@H](CCCNC(N)=O)C(=O)N[C@@H](CCCCN)C(=O)N[C@H](CCCCN)C(=O)N2CCC[C@H]2C(=O)N[C@@H](Cc2ccc(O)cc2)C(=O)N[C@@H](CCCNC(=N)N)C(=O)N[C@@H](CCCNC(N)=O)C(=O)N1)C(N)=O` [BKT-140] ({Benzoyl(4-F)}-RR[2Nal]CY[Cit]K[dK]PYR[Cit]CR-NH2; disulfide 4-13; N-terminus and C-terminus assumed), the “effect on 1D9 antibody binding” value (CXCR4 [1]) was “seemed to reduce 1D9 binding”, the IC50 (CXCR4-tropic HIV-1 [2]) was 435 ± 153 nM and the IC50 (SupT1 cells; [8]) was 932 ± 131 nM.
In the case of IVRWSKKVPCVS [EPI-X4 WSC02], the IC50 (CXCR4 [3]; SupT1 cells, APC-labelled 12G5, 2 h at 4 °C, mean ± SEM of 3 assays) is reported as 290 ± 75 nM, the Ki (CXCR4 [3]; calculated from IC50 12G5 by Cheng-Prusoff, Kd of 12G5 151.5 pM) is reported as 111 ± 29 nM and the “12G5-competing activity after 24 h in plasma” value ([4]; 20 µM in 99.3% pooled human plasma, 37 °C, 24 h) is reported as “remained partially active”. For the same compound, the “half-life t1/2 in plasma” value ([4]; 20 µM in pooled human plasma (6 donors), 37 °C, from IC50 relative to t = 0, one-phase decay) was 10 min, the “half-life t1/2 in plasma” value ([4]; 20 µM in pooled human plasma (6 donors), 37 °C, from IC50 relative to t = 0, one-phase decay, listed as WCS02) was ~ 10 min and the “inactivation in plasma with L-leucinethiol” value ([4]; human plasma pretreated with 300 µM L-leucinethiol (leucyl aminopeptidase inhibitor)) was “largely prevented WSC02 inactivation”. For the same compound, the half-life at 20 µM ([4]; 20 µM in plasma of an individual donor, 37 °C, read-out: half-life t1/2 in plasma) was 9.7 min, the half-life at 20 µM ([4]; 20 µM in pooled human plasma (6 donors), 37 °C, from IC50 relative to t = 0, one-phase decay, read-out: half-life t1/2 in plasma) was 9.7 min and the half-life at 20 µM ([4]; 20 µM in pooled human plasma, 37 °C, from areas under inhibition curves, read-out: half-life t1/2 in plasma from AUC) was 9.7 min. For the same compound, the “half-life t1/2 in blood” value (in vitro; 20 µM in whole EDTA blood of an individual donor, 37 °C) was 9 min, the half-life at 20 µM (in vitro; human, 20 µM in whole EDTA blood of an individual donor, 37 °C, read-out: half-life t1/2 in blood) was 8.9 min and the “stability in blood compared to plasma” value (in vitro; human, plasma) was “less stable in blood compared to plasma”. For the same compound, the IC50 (CXCR4-tropic HIV-1 [2]) was 257 ± 109 nM, the IC50 (SupT1 cells; [8]) was 15800 nM and the IC50 (SupT1 cells; read-out: IC50 migration, SupT1 towards CXCL12) was 16000 nM. For the same compound, the “inactivation in mouse plasma versus human plasma” value [5] was “more rapid inactivation of the peptide in mouse plasma”, the “IC50, IC90 and AUC after different incubation times” value (CXCR4 [6]) was “No significant differences” and the “IC50 leukemia cell migration towards CXCL12” value (CXCL12 migration) was “nanomolar range”. The “IC50 CXCR4-tropic HIV-1 infection” value (CXCR4-tropic HIV-1 [7]) was “nanomolar range”.
